Assay results from article PMC5288202, “Simultaneous inhibition of Vps34 kinase would enhance PI3Kδ inhibitor cytotoxicity in the B-cell malignancies” (Oncotarget, 2016).

Columns and labels:
PI4KA = biological target: T1, PI4KA (Homo sapiens, UniProt P42356); test: ADP-Glo biochemical assay; conditions: 50 μM ATP, read-out: IC50 against PI4KA
T1 construct: purchased Invitrogen

primary CLL cells = test: Growth of patient primary cells; format: cell-based; conditions: CLL cell, 72 hours, read-out: cell proliferation inhibited
Description: Peripheral blood mononuclear cells (PBMCs) from individuals with CLL were isolated by density centrifugation through Ficoll and frozen for each subject. Those subjects with low white counts whose CLL cell purity was expected to be < 85% underwent B cell isolation using RosetteSep. The protocol was approved by the Dana-Farber Harvard Cancer Center Institutional Review Board and all subjects signed written informed consent prior to participation.

mTORC1 kinase = mTORC1 kinase (Homo sapiens, UniProt P42345); test: in vitro IP kinase assay; format: biochemical; conditions: activity-based in vitro IP kinase assay; read-out: EC50 mTORC1 kinase inhibition
OCI-AML-3 [1] = test: Anti-proliferative effect; format: cell-based; conditions: Homo sapiens, AML(FLT3wt)
PI3Kδ = PI3Kδ (Homo sapiens, UniProt O00329); test: PI3K isoforms cellular selectivity assay (AKT phosphorylation, Raji, anti-IgM); format: cell-based; conditions: Raji cells, anti-IgM stimulation
PI3Kα = biological target: T2, PI3Kα (Homo sapiens, UniProt P42336); test: ADP-Glo biochemical assay; conditions: purified protein, 10 μM ATP, read-out: IC50 against PI3Kα (PIK3CA)
T2 construct: purchased Invitrogen
T2 sequence (P42336 whole entry): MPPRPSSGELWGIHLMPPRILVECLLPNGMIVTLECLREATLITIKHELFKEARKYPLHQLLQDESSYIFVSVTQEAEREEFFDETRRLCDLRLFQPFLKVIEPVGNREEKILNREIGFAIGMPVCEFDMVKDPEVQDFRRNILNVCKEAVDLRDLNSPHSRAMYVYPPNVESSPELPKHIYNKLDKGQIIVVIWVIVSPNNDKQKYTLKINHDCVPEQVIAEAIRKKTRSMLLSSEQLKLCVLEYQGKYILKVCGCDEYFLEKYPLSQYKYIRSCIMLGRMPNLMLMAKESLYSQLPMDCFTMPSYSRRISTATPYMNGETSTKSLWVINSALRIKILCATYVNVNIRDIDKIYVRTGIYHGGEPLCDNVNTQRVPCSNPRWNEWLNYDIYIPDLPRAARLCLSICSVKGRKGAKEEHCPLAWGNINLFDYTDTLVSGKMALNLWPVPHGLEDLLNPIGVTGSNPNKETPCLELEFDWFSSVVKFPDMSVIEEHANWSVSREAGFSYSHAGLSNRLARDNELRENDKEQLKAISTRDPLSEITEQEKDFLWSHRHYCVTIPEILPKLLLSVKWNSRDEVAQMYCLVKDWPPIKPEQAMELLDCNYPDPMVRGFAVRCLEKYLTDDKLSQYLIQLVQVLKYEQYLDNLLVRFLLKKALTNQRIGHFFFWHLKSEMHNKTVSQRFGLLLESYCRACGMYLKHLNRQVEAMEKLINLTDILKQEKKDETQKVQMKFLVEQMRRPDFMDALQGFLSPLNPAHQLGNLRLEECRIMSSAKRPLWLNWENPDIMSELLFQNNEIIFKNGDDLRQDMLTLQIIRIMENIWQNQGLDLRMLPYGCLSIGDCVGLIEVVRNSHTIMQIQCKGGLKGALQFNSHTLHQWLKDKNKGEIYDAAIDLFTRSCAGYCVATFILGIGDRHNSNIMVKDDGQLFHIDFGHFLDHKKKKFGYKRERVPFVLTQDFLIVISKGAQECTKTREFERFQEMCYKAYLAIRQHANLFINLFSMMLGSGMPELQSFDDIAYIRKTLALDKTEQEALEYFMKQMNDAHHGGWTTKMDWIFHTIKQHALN
T2 sequence (P27986 whole entry partner): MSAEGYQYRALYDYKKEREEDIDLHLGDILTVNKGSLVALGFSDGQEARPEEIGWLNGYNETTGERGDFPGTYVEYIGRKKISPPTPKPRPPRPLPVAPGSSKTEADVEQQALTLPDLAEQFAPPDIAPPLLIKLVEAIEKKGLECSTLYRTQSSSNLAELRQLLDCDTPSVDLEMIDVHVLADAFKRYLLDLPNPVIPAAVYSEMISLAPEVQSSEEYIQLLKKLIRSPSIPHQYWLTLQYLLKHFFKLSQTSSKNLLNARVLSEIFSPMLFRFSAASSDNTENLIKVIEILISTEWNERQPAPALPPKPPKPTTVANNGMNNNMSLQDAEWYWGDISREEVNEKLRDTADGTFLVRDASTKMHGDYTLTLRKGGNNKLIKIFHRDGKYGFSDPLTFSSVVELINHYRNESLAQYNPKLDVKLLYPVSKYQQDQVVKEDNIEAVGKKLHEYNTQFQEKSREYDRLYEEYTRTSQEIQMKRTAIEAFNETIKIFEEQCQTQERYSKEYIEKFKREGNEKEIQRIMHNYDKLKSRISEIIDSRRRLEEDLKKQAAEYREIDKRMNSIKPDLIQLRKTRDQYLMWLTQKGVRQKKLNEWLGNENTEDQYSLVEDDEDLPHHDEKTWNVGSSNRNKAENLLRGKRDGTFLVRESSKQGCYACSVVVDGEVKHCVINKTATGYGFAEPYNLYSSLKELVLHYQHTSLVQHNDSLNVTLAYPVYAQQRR

HT = test: Anti-proliferative effect; format: cell-based; conditions: Homo sapiens, read-out: GI50 HT
PIK3C2B = biological target: T3, PIK3C2B (Homo sapiens, UniProt O00750); test: ADP-Glo biochemical assay; conditions: 50 μM ATP, read-out: IC50 against PIK3C2B
T3 construct: purchased Invitrogen

HEL = test: Anti-proliferative effect; format: cell-based; conditions: Homo sapiens, read-out: GI50 HEL
NOMO-1 = test: Anti-proliferative effect; format: cell-based; conditions: Homo sapiens, NOMO-1, read-out: GI50 NOMO-1
U937 = test: Anti-proliferative effect; format: cell-based; conditions: Homo sapiens, U-937, read-out: GI50 U937
MV4-11 [2] = test: Colony formation (colonogenic assay); format: cell-based; conditions: Homo sapiens, AML
[3] = system: MV4-11 cell-inoculated xenograft; test: MV4-11 xenograft tumor model; format: in vivo
Description: Six week old female nu/nu mice were purchased from the Shanghai Experimental Center, Chinese Science Academy (Shanghai). All animals were maintained in a specific pathogen-free facility and used according to the animal care regulations of Hefei Institutes of Physical Science Chinese Academy of Sciences, and all efforts were made to minimize animal suffering. To obtain an […] in the mice, cells were harvested during exponential growth. 7 million MV4-11 cells in PBS were suspended in a 1:1 mixture with Matrigel (BD Biosciences) and injected into the subcutaneous space on the right flank of nu/nu mice. Daily intraperitoneal injection was initiated when MV4-11 tumors had reached a size of 200 to 400 mm^3. Animals were then randomized into treatment groups of 5 mice each for efficacy studies. […] Body weight and tumor growth were measured daily after PI3KD/V-IN-01 treatment. Tumor volumes were calculated as follows: tumor volume (mm^3)=[(W^2× L)/2] in which width (W) is defined as the smaller of the two measurements and length(L) is defined as the larger of the two measurements.
TUNEL staining was performed using the POD in Situ Cell Death Detection kit (Roche, USA). Sections were deparaffinized in xylene, rehydrated in decreasing concentrations of ethanol, then treated by nuclease free Proteinase K for 15 min at room temperature before endogenous peroxidase was blocked in 3% H2O2 in methanol. Terminal deoxynucleotidyl transferase (TdT) in reaction buffer was applied to sections for 1h at 37°C. Following washes, the slides were covered by converter-POD solution for 30 min at 37°C. Apoptotic cells were detected after incubation in the 3, 3′-diaminobenzidine (DAB) chromogen (Beyotime Biotechnology) for approximately 8 min and slides were counterstained with hematoxylin.
Incubations with primary antibodies lasted overnight at 4°C. The secondary detection system was used to visualize antibody binding. Staining was developed with DAB; slides were counterstained with hematoxylin, dehydrated and mounted.

SKM-1 = test: Anti-proliferative effect; format: cell-based; conditions: Homo sapiens, SKM-1, read-out: GI50 SKM-1
MV4-11 [4] = test: Anti-proliferative effect; format: cell-based; conditions: AML (FLT3-ITD)
[5] = system: LAMP1 localization in HeLa cells; test: Immunofluorescence of LAMP1 localization; format: cell-based
Protocol: HeLa cells were treated with different concentrations of inhibitors for 16 hours. For all immunofluorescence experiments, cells were fixed in -20 °C methanol for 5 minutes or 3.7% (v/v) formaldehyde in phosphate-buffered saline (PBS) for 20 minutes. For LC3B staining, cells were fixed in -20 °C methanol. For EEA1 and LAMP1 staining, cells were fixed in PBS+ formaldehyde. Cells were then permeabilized with TBSTx (0.1% Triton X-100), blocked in AbDil (TBSTx + 2% BSA + 0.1% NaN3), and probed with primary and secondary antibodies diluted in AbDil. Cells were rinsed thoroughly with TBSTx and mounted by anti-fade prolong Gold with DAPI. Images were taken using a Leica DMI4000B fluorescent microscope. All experiments were repeated at least three times). […] Cells were lysed in lysis buffer. P62, LC3B, and GAPDH antibodies were used for immunoblotting.

PI3Kγ = biological target: T4, PI3Kγ (Mus musculus, UniProt Q9JHG7); test: PI3K isoforms cellular selectivity assay (AKT phosphorylation, RAW264.7, C5a); format: cell-based; conditions: RAW264.7 cells, C5a stimulation
T4 construct: endogenous in cells; host or cells: RAW264.7 (ATCC)
T4 sequence (Q9JHG7 whole entry, canonical isoform): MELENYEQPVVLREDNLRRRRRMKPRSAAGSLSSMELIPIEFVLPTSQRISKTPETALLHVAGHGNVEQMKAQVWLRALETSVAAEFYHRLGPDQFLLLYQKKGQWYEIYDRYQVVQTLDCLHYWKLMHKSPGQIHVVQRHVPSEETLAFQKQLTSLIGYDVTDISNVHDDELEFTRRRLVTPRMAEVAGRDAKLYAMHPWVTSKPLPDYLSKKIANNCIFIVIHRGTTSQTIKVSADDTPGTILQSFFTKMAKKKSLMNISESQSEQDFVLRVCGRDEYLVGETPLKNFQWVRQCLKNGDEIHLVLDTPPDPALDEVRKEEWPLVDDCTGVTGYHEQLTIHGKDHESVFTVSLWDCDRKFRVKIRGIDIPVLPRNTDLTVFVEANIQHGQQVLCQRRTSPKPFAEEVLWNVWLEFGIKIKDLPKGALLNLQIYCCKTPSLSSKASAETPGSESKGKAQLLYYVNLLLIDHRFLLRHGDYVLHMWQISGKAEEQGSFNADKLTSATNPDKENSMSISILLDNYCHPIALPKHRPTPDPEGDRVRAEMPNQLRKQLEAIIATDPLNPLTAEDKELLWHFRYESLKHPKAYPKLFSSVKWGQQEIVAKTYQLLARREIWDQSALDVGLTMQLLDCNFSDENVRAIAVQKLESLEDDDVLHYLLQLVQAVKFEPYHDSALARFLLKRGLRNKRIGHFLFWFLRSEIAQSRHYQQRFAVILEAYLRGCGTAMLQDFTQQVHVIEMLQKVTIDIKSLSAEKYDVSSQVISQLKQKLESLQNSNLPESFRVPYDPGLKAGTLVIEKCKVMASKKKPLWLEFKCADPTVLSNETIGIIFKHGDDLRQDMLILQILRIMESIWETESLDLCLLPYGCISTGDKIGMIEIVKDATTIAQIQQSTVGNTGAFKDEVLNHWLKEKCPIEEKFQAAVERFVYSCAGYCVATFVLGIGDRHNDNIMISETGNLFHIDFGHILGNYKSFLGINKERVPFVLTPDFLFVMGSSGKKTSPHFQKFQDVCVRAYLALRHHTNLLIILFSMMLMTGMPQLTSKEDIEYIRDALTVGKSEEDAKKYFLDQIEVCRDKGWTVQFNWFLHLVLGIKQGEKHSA
Protocol: Cells were lysed and AKT phosphorylation was determined by Western Blotting. Intensity of the bands was determined using ImageJ 1.42q (NIH, USA) and normalized to total AKT (loading control).

OCI-AML-3 [6] = test: Cell cycle analysis; format: cell-based; conditions: OCI-AML-3, 48 h treatment
MV4-11 [7] = test: Autophagy markers LC3BII and p62 (immunoblotting); format: cell-based
OCI-AML-2 = test: Colony formation (colonogenic assay); format: cell-based; conditions: Homo sapiens, OCI-AML2
OCI-AML-3 [8] = test: Colony formation (colonogenic assay); format: cell-based; conditions: Homo sapiens
OCI-AML-3 [9] = test: Induction of apoptosis (PARP cleavage); format: cell-based; conditions: OCI-AML-3, concentrations up to 10 μM
[10] = immunohistochemistry, MV4-11 xenograft

T1 sequence (P42356 whole entry): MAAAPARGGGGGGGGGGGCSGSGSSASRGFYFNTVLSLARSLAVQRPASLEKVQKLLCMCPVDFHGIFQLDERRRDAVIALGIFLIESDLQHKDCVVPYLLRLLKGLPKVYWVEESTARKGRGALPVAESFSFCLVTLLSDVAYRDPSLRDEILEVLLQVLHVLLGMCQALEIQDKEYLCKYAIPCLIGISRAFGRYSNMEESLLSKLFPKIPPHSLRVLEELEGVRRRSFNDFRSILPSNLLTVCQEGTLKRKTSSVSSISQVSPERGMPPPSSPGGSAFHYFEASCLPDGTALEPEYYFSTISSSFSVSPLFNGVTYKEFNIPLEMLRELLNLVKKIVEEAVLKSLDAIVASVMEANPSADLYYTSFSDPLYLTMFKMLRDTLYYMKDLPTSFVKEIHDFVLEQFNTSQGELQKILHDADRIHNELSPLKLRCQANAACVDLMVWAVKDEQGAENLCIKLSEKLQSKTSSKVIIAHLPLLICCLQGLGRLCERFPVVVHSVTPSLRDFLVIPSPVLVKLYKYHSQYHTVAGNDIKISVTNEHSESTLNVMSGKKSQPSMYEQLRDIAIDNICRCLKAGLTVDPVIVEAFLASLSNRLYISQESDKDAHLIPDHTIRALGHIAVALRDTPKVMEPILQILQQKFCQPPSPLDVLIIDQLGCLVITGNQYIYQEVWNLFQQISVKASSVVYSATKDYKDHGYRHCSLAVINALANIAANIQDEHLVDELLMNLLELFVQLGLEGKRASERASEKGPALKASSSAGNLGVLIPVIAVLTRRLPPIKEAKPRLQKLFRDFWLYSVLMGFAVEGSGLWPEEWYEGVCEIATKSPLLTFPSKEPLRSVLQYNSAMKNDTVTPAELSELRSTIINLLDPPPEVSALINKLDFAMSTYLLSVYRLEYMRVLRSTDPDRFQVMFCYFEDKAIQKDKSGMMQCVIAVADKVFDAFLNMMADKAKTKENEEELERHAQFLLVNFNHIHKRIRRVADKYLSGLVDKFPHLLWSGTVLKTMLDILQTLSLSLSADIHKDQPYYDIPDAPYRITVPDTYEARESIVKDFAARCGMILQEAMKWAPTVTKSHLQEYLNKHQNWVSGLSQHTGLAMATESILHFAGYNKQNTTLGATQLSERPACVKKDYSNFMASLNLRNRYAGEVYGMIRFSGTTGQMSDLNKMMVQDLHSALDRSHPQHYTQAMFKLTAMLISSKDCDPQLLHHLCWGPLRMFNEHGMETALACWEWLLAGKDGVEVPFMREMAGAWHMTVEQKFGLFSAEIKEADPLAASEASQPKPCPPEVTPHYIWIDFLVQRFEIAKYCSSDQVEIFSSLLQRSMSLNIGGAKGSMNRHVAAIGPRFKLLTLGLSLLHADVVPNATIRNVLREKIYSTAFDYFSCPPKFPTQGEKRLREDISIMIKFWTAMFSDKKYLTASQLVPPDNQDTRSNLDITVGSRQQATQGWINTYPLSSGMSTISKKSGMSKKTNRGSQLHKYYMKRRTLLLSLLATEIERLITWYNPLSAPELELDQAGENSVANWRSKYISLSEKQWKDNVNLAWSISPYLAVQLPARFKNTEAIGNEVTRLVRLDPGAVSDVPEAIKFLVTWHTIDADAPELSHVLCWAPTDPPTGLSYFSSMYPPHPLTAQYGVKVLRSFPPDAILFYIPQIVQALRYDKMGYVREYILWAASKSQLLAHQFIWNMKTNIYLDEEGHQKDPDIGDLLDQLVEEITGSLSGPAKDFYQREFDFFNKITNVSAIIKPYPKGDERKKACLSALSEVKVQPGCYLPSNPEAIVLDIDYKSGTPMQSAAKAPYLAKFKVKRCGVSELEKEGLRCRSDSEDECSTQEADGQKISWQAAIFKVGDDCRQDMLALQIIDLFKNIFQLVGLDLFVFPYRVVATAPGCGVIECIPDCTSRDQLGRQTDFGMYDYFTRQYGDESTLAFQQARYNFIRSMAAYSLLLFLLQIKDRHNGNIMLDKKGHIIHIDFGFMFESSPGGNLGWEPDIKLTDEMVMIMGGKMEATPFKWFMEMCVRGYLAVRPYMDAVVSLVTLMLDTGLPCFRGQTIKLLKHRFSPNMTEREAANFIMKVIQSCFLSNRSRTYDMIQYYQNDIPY

Q: What does the source list for `Cc1nc(NC(=O)CN)sc1-c1cnc(Cl)c(NS(=O)(=O)c2ccc(C(C)(C)C)cc2)c1` [PI3KD/V-IN-01, 2-amino-N-(5-(5-(4-tert-butylphenylsulfonamido)-6-chloropyridin-3-yl)-4-methylthiazol-2-yl)acetamide]?
A: IC50 (PI4KA): > 10 µM; inhibition at 1 µM (primary CLL cells): ~50%; EC50 (mTORC1 kinase): 1.7 µM; GI50 (OCI-AML-3 [1]): 2.4 µM; EC50 (PI3Kδ): 0.011 µM; IC50 (PI3Kα): 0.064 µM; GI50 (HT): 1.9 µM; IC50 (PIK3C2B): > 10 µM; GI50 (HEL): > 10 µM; GI50 (NOMO-1): 2.3 µM; GI50 (U937): 2.2 µM; EC50 (MV4-11 [2]): 0.124 µM; TGI (Tumor growth inhibition) ([3]; 50 mg/kg/day administered intraperitoneal, MV4-11 xenograft mice): 86.8%; effect on body weight ([3]; 50 mg/kg/day, MV4-11 xenograft mice): no apparent effects on body weight; apoptosis in tumor tissue (TUNEL stain) [3, 10]: dose-dependently increased; cell proliferation in tumor tissue (Ki67 stain) [3, 10]: dose-dependently inhibited; GI50 (SKM-1): 1 µM; GI50 (MV4-11 [4]): 0.78 µM; GI50 (MV4-11 [4]; Homo sapiens, MV4-11): < 1 µM; Effect on lysosome marker LAMP1 localization [5]: affected; EC50 (PI3Kγ): 0.186 µM; cell cycle progression (OCI-AML-3 [6]): arrested in the G0/G1 phase; levels of the autophagy markers, LC3BII and p62 (MV4-11 [7]): not observed; EC50 (OCI-AML-2): 0.145 µM; EC50 (OCI-AML-3 [8]): 1 µM; induction of apoptosis (OCI-AML-3 [9]): no apoptosis was observed
